Results taken from ChEMBL document CHEMBL3885881, “DrugMatrix”.

Organism: Rattus norvegicus
Test: DrugMatrix - Regimen: Daily Repeat
Assay type: toxicity, organism-based, Sprague-Dawley
Set-up: regimen Daily Repeat, gender Male, age 6-8 weeks
Settings: in vivo, po, route oral GAVAGE, vehicle 100 % WATER; for ABSOLUTE BASOPHIL / ABSOLUTE EOSINOPHIL / ABSOLUTE LYMPHOCYTE / ABSOLUTE MONOCYTE / ABSOLUTE SEGMENTED NEUTROPHIL / BASOPHIL / EOSINOPHIL / ERYTHROCYTE COUNT / HEMATOCRIT / HEMOGLOBIN / LEUKOCYTE COUNT / LYMPHOCYTE / MEAN CORPUSCULAR HEMOGLOBIN / MEAN CORPUSCULAR HEMOGLOBIN CONCENTRATION / MEAN CORPUSCULAR VOLUME / MONOCYTE / NEUTROPHIL / NUCLEATED RED BLOOD CELLS / PLATELET COUNT: tissue Blood; for ALANINE AMINOTRANSFERASE / ALBUMIN / ALKALINE PHOSPHATASE / ASPARTATE AMINOTRANSFERASE / BLOOD UREA NITROGEN / CARBON DIOXIDE / CHLORIDE / CHOLESTEROL / CREATINE PHOSPHOKINASE / CREATININE / GLUCOSE / LACTATE DEHYDROGENASE / LIPASE / PHOSPHORUS / POTASSIUM / SODIUM / TOTAL BILIRUBIN / TOTAL PROTEIN / URIC ACID: tissue Plasma
[1] = 2 mg/kg, 120 h, dose level Low, time 5 day
[2] = 184 mg/kg, 72 h, dose level High, time 3 day
[3] = 184 mg/kg, 120 h, dose level High, time 5 day

SMILES: C[C@]12C=CC(=O)C=C1CC[C@@H]1[C@@H]2[C@@H](O)C[C@@]2(C)[C@H]1CC[C@]2(O)C(=O)CO [PREDNISOLONE]
- ABSOLUTE BASOPHIL [1]: 0 CELLS/uL
- ABSOLUTE EOSINOPHIL [1]: 0 CELLS/uL
- ABSOLUTE LYMPHOCYTE [1]: 11293 CELLS/uL
- ABSOLUTE MONOCYTE [1]: 44.33 CELLS/uL
- ABSOLUTE SEGMENTED NEUTROPHIL [1]: 929.33 CELLS/uL
- BASOPHIL [1]: 0%
- EOSINOPHIL [1]: 0%
- ERYTHROCYTE COUNT [1]: 6.06 x10E6/uL
- HEMATOCRIT [1]: 36.67%
- HEMOGLOBIN [1]: 14.5 G/DL
- LEUKOCYTE COUNT [1]: 12.27 x10E3/uL
- LYMPHOCYTE [1]: 92.33%
- MEAN CORPUSCULAR HEMOGLOBIN [1]: 23.9 pg
- MEAN CORPUSCULAR HEMOGLOBIN CONCENTRATION [1]: 39.53 G/DL
- MEAN CORPUSCULAR VOLUME [1]: 60.53 fL
- MONOCYTE [1]: 0.33%
- NEUTROPHIL [1]: 7.33%
- NUCLEATED RED BLOOD CELLS [1]: 0.33 /100WBC
- PLATELET COUNT [1]: 1186.33 x10E3/uL
- ALANINE AMINOTRANSFERASE [1]: 41.33 u/L
- ALBUMIN [1]: 4.37 G/DL
- ALKALINE PHOSPHATASE [1]: 333.67 u/L
- ASPARTATE AMINOTRANSFERASE [1]: 88.67 u/L
- BLOOD UREA NITROGEN [1]: 16.33 mg/dL
- CARBON DIOXIDE [1]: 26.67 mmol/L
- CHLORIDE [1]: 101 MEQ/L
- CHOLESTEROL [1]: 55.33 mg/dL
- CREATINE PHOSPHOKINASE [1]: 433 u/L
- CREATININE [1]: 0.17 mg/dL
- GLUCOSE [1]: 143.33 mg/dL
- LACTATE DEHYDROGENASE [1]: 390.33 u/L
- LIPASE [1]: 9 u/L
- PHOSPHORUS [1]: 10.87 mg/dL
- POTASSIUM [1]: 5.88 MEQ/L
- SODIUM [1]: 142.2 MEQ/L
- TOTAL BILIRUBIN [1]: 0.23 mg/dL
- TOTAL PROTEIN [1]: 6.1 G/DL
- URIC ACID [1]: 1.87 mg/dL
- ABSOLUTE BASOPHIL [2]: 0 CELLS/uL
- ABSOLUTE EOSINOPHIL [2]: 0 CELLS/uL
- ABSOLUTE LYMPHOCYTE [2]: 4216.33 CELLS/uL
- ABSOLUTE MONOCYTE [2]: 85 CELLS/uL
- ABSOLUTE SEGMENTED NEUTROPHIL [2]: 2332 CELLS/uL
- BASOPHIL [2]: 0%
- EOSINOPHIL [2]: 0%
- ERYTHROCYTE COUNT [2]: 6.23 x10E6/uL
- HEMATOCRIT [2]: 38.3%
- HEMOGLOBIN [2]: 14.57 G/DL
- LEUKOCYTE COUNT [2]: 6.63 x10E3/uL
- LYMPHOCYTE [2]: 63.67%
- MEAN CORPUSCULAR HEMOGLOBIN [2]: 23.4 pg
- MEAN CORPUSCULAR HEMOGLOBIN CONCENTRATION [2]: 38.03 G/DL
- MEAN CORPUSCULAR VOLUME [2]: 61.47 fL
- MONOCYTE [2]: 1.33%
- NEUTROPHIL [2]: 35%
- NUCLEATED RED BLOOD CELLS [2]: 0 /100WBC
- PLATELET COUNT [2]: 1200 x10E3/uL
- ALANINE AMINOTRANSFERASE [2]: 57.33 u/L
- ALBUMIN [2]: 5.07 G/DL
- ALKALINE PHOSPHATASE [2]: 269.33 u/L
- ASPARTATE AMINOTRANSFERASE [2]: 67 u/L
- BLOOD UREA NITROGEN [2]: 18.67 mg/dL
- CARBON DIOXIDE [2]: 25 mmol/L
- CHLORIDE [2]: 99 MEQ/L
- CHOLESTEROL [2]: 84.33 mg/dL
- CREATINE PHOSPHOKINASE [2]: 258 u/L
- CREATININE [2]: 0.22 mg/dL
- GLUCOSE [2]: 170 mg/dL
- LACTATE DEHYDROGENASE [2]: 120.33 u/L
- LIPASE [2]: 12.33 u/L
- PHOSPHORUS [2]: 11.57 mg/dL
- POTASSIUM [2]: 5.92 MEQ/L
- SODIUM [2]: 142.73 MEQ/L
- TOTAL BILIRUBIN [2]: 0.17 mg/dL
- TOTAL PROTEIN [2]: 7.07 G/DL
- URIC ACID [2]: 2.57 mg/dL
- ABSOLUTE BASOPHIL [3]: 0 CELLS/uL
- ABSOLUTE EOSINOPHIL [3]: 20.33 CELLS/uL
- ABSOLUTE LYMPHOCYTE [3]: 3939 CELLS/uL
- ABSOLUTE MONOCYTE [3]: 40.67 CELLS/uL
- ABSOLUTE SEGMENTED NEUTROPHIL [3]: 2333.33 CELLS/uL
- BASOPHIL [3]: 0%
- EOSINOPHIL [3]: 0.33%
- ERYTHROCYTE COUNT [3]: 6.44 x10E6/uL
- HEMATOCRIT [3]: 38.23%
- HEMOGLOBIN [3]: 15.03 G/DL
- LEUKOCYTE COUNT [3]: 6.33 x10E3/uL
- LYMPHOCYTE [3]: 61.33%
- MEAN CORPUSCULAR HEMOGLOBIN [3]: 23.4 pg
- MEAN CORPUSCULAR HEMOGLOBIN CONCENTRATION [3]: 39.37 G/DL
- MEAN CORPUSCULAR VOLUME [3]: 59.4 fL
- MONOCYTE [3]: 0.67%
- NEUTROPHIL [3]: 37.67%
- NUCLEATED RED BLOOD CELLS [3]: 0.33 /100WBC
- PLATELET COUNT [3]: 1142.33 x10E3/uL
- ALANINE AMINOTRANSFERASE [3]: 78.33 u/L
- ALBUMIN [3]: 5.07 G/DL
- ALKALINE PHOSPHATASE [3]: 230.33 u/L
- ASPARTATE AMINOTRANSFERASE [3]: 90.33 u/L
- BLOOD UREA NITROGEN [3]: 18.67 mg/dL
- CARBON DIOXIDE [3]: 23.33 mmol/L
- CHLORIDE [3]: 100 MEQ/L
- CHOLESTEROL [3]: 63.67 mg/dL
- CREATINE PHOSPHOKINASE [3]: 788.33 u/L
- CREATININE [3]: 0.21 mg/dL
- GLUCOSE [3]: 184.67 mg/dL
- LACTATE DEHYDROGENASE [3]: 177.67 u/L
- LIPASE [3]: 11.67 u/L
- PHOSPHORUS [3]: 10.9 mg/dL
- POTASSIUM [3]: 5.41 MEQ/L
- SODIUM [3]: 145.27 MEQ/L
- TOTAL BILIRUBIN [3]: 0.23 mg/dL
- TOTAL PROTEIN [3]: 6.93 G/DL
- URIC ACID [3]: 1.27 mg/dL
